From ChEMBL document CHEMBL5291721, “A preclinical secondary pharmacology resource illuminates target-adverse drug reaction associations of marketed drugs” (Nat Commun, 2023)

Experiments:
Format in all cases: functional
[1] = target: T1, Thromboxane A2 receptor (Homo sapiens, UniProt P21731)
T1 sequence (P21731 whole entry): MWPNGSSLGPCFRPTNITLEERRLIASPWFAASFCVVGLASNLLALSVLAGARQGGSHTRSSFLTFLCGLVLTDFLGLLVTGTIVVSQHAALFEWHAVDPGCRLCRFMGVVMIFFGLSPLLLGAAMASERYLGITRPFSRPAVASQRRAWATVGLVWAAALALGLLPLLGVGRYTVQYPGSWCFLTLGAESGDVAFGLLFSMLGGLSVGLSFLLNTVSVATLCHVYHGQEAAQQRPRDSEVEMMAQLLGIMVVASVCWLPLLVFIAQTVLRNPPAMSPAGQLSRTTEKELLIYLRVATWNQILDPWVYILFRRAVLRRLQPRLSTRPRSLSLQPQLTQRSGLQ

[2] = target: T2, Oxysterols receptor LXR-alpha (Homo sapiens, UniProt Q13133)
T2 sequence (Q13133 whole entry): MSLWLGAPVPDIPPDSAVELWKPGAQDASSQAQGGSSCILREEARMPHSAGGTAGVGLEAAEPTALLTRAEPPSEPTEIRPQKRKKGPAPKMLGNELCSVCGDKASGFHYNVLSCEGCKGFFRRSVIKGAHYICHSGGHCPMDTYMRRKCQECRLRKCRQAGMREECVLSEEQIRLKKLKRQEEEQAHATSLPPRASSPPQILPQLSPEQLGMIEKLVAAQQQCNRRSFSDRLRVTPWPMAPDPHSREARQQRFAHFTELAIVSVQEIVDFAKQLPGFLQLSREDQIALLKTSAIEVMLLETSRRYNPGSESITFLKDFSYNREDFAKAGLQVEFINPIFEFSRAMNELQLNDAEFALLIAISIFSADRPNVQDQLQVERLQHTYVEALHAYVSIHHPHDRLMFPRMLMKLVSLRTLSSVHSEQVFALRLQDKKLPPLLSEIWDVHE

[3] = target: T3, Oxysterols receptor LXR-beta (Homo sapiens, UniProt P55055)
T3 sequence (P55055 whole entry): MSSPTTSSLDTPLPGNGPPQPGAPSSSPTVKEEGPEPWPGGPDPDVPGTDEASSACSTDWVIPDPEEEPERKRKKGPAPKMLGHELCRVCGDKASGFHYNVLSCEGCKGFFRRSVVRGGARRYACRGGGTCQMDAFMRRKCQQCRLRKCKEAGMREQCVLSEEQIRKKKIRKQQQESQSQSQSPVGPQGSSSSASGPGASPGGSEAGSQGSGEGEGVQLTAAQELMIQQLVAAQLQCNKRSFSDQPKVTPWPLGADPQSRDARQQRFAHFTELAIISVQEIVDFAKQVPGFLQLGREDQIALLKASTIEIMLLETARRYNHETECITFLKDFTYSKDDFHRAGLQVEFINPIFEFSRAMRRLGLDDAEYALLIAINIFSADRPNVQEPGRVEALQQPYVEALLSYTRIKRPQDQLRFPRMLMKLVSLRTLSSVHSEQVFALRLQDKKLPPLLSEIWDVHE

[4] = target: T4, Bile acid receptor (Homo sapiens, UniProt Q96RI1)
T4 sequence (Q96RI1 whole entry): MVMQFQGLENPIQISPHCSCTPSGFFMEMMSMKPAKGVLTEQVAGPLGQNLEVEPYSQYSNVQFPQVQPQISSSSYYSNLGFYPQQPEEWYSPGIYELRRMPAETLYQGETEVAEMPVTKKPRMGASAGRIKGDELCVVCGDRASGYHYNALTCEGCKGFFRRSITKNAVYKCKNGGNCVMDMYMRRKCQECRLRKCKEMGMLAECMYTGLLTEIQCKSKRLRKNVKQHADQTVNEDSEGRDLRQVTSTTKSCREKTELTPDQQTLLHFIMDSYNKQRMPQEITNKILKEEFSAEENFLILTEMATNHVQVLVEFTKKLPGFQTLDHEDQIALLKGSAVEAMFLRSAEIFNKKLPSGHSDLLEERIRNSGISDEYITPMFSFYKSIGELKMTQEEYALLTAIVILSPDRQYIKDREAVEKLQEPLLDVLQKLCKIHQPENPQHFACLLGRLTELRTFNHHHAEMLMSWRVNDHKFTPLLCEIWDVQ
Also: assay procedure not described here.

AC50 [1] | Structure (SMILES) | AC50 [2] | AC50 [3] | AC50 [4]
> 30 µM | N=C(N)NC(=O)Cc1c(Cl)cccc1Cl [GUANFACINE] |  |  | 
 | CC(=O)N1CCN(c2ccc(OCC3COC(Cn4ccnc4)(c4ccc(Cl)cc4Cl)O3)cc2)CC1 (centres undefined) [KETOCONAZOLE] | > 10 µM | 4.7 µM | > 10 µM
